# Article PMC10082216 (Nature Communications, 2023)
# “And” between values parts separate entries of the source, which are not always exact repeats. Equal entries are not always repeated. Where two headings read alike, the source gives them in different places.
# Test: TD-6450 phase I clinical study (SAD/MAD): pharmacokinetics
# Format: in vivo, human
# Conditions: for Cmax: read-out: Cmax Mean ± SD; for half-life: read-out: t1/2 Mean ± SD (converted)
# Protocol: Primary and secondary outcomes were pre-defined as follows: Safety and tolerability as a primary outcome, pharmacokinetics as a secondary outcome. Safety and tolerability were evaluated using standard measures, including adverse event (AE) monitoring, clinical laboratory tests (hematology, serum chemistry, coagulation, and urinalysis), vital signs, physical examinations, and 12-lead electrocardiograms (ECGs). […]
# This study was conducted in two parts, Part A (SAD) and Part B (MAD). For the Part A, the age of enrolled subjects ranged from 20 to 60 years, with a mean age range of 32.1 to 46.2 years. Most subjects were male (73 total subjects) and most were white (55 subjects) or black (22 subjects). For Part B of the study, ages ranged from 23 to 60 years with a similar mean age across treatment groups. Most subjects were male (25 total subjects) and all were either white (18 subjects) or black (12 subjects). For each part of the study, the mean body mass index (BMI) and creatinine clearance were similar across treatment groups. […] Part A: Healthy subjects were sequentially enrolled and randomly assigned to each dose cohort (up to 10 dose-ascending cohorts were planned, including a fed arm in the food effect cohort) to receive either a single dose of TD-6450 or placebo. For each dose cohort, 8 subjects were randomized in a 3:1 ratio (6 subjects received TD-6450 and 2 subjects received placebo). The starting dose of TD-6450 was 0.5 mg with a planned maximum dose of 1000 mg. Upon review of the 500-mg cohort PK data, the decision was made to not escalate to the 1000-mg cohort because of exposure saturation at ≥ 500 mg. The following doses were administered: 0.5 mg, 1.5 mg, 5 mg, 15 mg, 30 mg, 60 mg, 120 mg, 240 mg, and 500 mg. Part B: Healthy subjects were sequentially enrolled in 3 ascending dose cohorts (TD-6450 60 mg, 120 mg, and 240 mg) and randomly assigned to receive either TD-6450 or placebo as once daily doses for 14 days. For each dose cohort, 10 subjects were randomized in a 4:1 ratio (8 subjects received TD-6450 and 2 subjects received placebo). Blinded safety, tolerability, and available PK data after each dose cohort were reviewed by the Safety Data Review Committee (SDRC) before escalation to the next dosing cohort for both part A and B. Subjects of the clinical study were randomly assigned to each cohort. Randomizations codes were assigned to the subjects. All study subjects, study investigators, and the sponsor’s staff involved in the conduct of the study were blinded to treatment assignment. The only personnel who had access to the randomization code before database lock were: The pharmacist or pharmacy staff member who prepared drug or placebo capsules for administration to the subject according to the randomization code and the bioanalytical contract laboratory that analyzed the PK samples (plasma and urine).
# [1] = Male subjects, SAD arm NCT02022306, Dose 30.00, 3 Hours
# [2] = Male subjects, SAD arm NCT02022306, Dose 30.00, 4 Hours
# [3] = Male subjects, SAD arm NCT02022306, Dose 30.00, 72 Hours
# [4] = Male subjects, SAD arm NCT02022306, Dose 30.00, 96 Hours
# [5] = Male subjects, SAD arm NCT02022306, Dose 30.00, 120 Hours
# [6] = Male subjects, SAD arm NCT02022306, Dose 30.00, 144 Hours
# [7] = Male subjects, SAD arm NCT02022306, Dose 30.00, 168 Hours
# [8] = Male subjects, SAD arm NCT02022306, Dose 30.00, Predose
# [9] = both sexes, human, plasma, oral, 1.5 mg, SAD 1.5 mg
# [10] = both sexes, human, plasma, oral, 5 mg, SAD 5 mg
# [11] = both sexes, human, plasma, oral, 15 mg, SAD 15 mg
# [12] = both sexes, human, plasma, oral, 30 mg, SAD 30 mg
structure (smiles),measurement,setting,value
CNC(=O)N1C[C@@H](C)N(c2ccc(C(=O)Nc3ccc(-c4ccc(-c5c[nH]c([C@@H]6CCCN6C(=O)[C@@H](NC(=O)OC)C(C)C)n5)cc4)c(OC(F)(F)F)c3)cn2)C[C@@H]1C [TD-6450],Concentration,"Female subjects, SAD arm NCT02022306, Dose 0.50, Predose",0.00 ng/mL
same,Concentration,"Female subjects, SAD arm NCT02022306, Dose 5.00, Predose",0.00 ng/mL
same,Concentration,"Female subjects, SAD arm NCT02022306, Dose 15.00, Predose",0.00 ng/mL
same,Concentration,"Female subjects, SAD arm NCT02022306, Dose 30.00, 3 Hours",41.80 ng/mL
same,Concentration,"Female subjects, SAD arm NCT02022306, Dose 30.00, 4 Hours",44.70 ng/mL
same,Concentration,"Female subjects, SAD arm NCT02022306, Dose 30.00, 6 Hours",43.90 ng/mL
same,Concentration,"Female subjects, SAD arm NCT02022306, Dose 30.00, 8 Hours",35.40 ng/mL
same,Concentration,"Female subjects, SAD arm NCT02022306, Dose 30.00, 12 Hours",27.90 ng/mL
same,Concentration,"Female subjects, SAD arm NCT02022306, Dose 30.00, 24 Hours",20.20 ng/mL
same,Concentration,"Female subjects, SAD arm NCT02022306, Dose 30.00, 48 Hours",17.50 ng/mL
same,Concentration,"Female subjects, SAD arm NCT02022306, Dose 30.00, 72 Hours",12.70 ng/mL
same,Concentration,"Female subjects, SAD arm NCT02022306, Dose 30.00, 96 Hours",9.33 ng/mL
same,Concentration,"Female subjects, SAD arm NCT02022306, Dose 30.00, 120 Hours",7.89 ng/mL
same,Concentration,"Female subjects, SAD arm NCT02022306, Dose 30.00, 144 Hours",6.17 ng/mL
same,Concentration,"Female subjects, SAD arm NCT02022306, Dose 30.00, 168 Hours",4.12 ng/mL
same,Concentration,"Female subjects, SAD arm NCT02022306, Dose 30.00, Predose",0.00 ng/mL
same,Concentration,"Female subjects, SAD arm NCT02022306, Dose 60.00, Predose",0.00 ng/mL
same,Concentration,"Male subjects, SAD arm NCT02022306, Dose 0.50, Predose",0.00 ng/mL
same,Concentration,"Male subjects, SAD arm NCT02022306, Dose 1.50, Predose",0.00 ng/mL
same,Concentration,"Male subjects, SAD arm NCT02022306, Dose 5.00, Predose",0.00 ng/mL
same,Concentration,"Male subjects, SAD arm NCT02022306, Dose 15.00, Predose",0.00 ng/mL
same,Concentration,[1],16.10 ng/mL
same,Concentration (ng/ml),[1],14.80 ng/mL
same,Concentration,[2],17.80 ng/mL
same,Concentration (ng/ml),[2],18.90 ng/mL
same,Concentration,"Male subjects, SAD arm NCT02022306, Dose 30.00, 6 Hours",21.60 ng/mL
same,Concentration,"Male subjects, SAD arm NCT02022306, Dose 30.00, 8 Hours",20.90 ng/mL
same,Concentration,"Male subjects, SAD arm NCT02022306, Dose 30.00, 12 Hours",16.40 ng/mL
same,Concentration,"Male subjects, SAD arm NCT02022306, Dose 30.00, 24 Hours",12.70 ng/mL
same,Concentration,"Male subjects, SAD arm NCT02022306, Dose 30.00, 48 Hours",9.02 ng/mL
same,Concentration,[3],7.45 ng/mL
same,Concentration (ng/ml),[3],9.39 ng/mL
same,Concentration,[4],6.04 ng/mL
same,Concentration (ng/ml),[4],7.13 ng/mL
same,Concentration,[5],4.98 ng/mL
same,Concentration (ng/ml),[5],5.80 ng/mL
same,Concentration,[6],3.71 ng/mL
same,Concentration (ng/ml),[6],4.24 ng/mL
same,Concentration,[7],3.30 ng/mL
same,Concentration (ng/ml),[7],3.28 ng/mL
same,Concentration,[8],0.00 ng/mL
same,Concentration (ng/ml),[8],0.00 ng/mL
same,Concentration (ng/ml),"Male subjects, SAD arm NCT02022306, Dose 60.00, 8 Hours",61.90 ng/mL and 92.80 ng/mL and 97.50 ng/mL and 65.40 ng/mL
same,Concentration (ng/ml),"Male subjects, SAD arm NCT02022306, Dose 60.00, Predose",0.00 ng/mL
same,Concentration (ng/ml),"Male subjects, SAD arm NCT02022306, Dose 120.00, Predose",0.00 ng/mL
same,Concentration (ng/ml),"Male subjects, SAD arm NCT02022306, Dose 240.00, Predose",0.00 ng/mL
same,Concentration (ng/ml),"Male subjects, SAD arm NCT02022306, Dose 500.00, 30 Minutes",2.54 ng/mL and 3.61 ng/mL and 2.21 ng/mL
same,Concentration (ng/ml),"Male subjects, SAD arm NCT02022306, Dose 500.00, Predose",0.00 ng/mL
same,Cmax,"both sexes, human, plasma, oral, 0.5 mg, SAD 0.5 mg",0.5 ± 0.1 nM
same,Cmax,[9],1.5 ± 0.4 nM
same,half-life,[9],84.3 h
same,Cmax,[10],5.37 ± 1.8 nM
same,half-life,[10],71.7 ± 5.2 h
same,Cmax,[11],21 ± 7.9 nM
same,half-life,[11],77 ± 14.2 h
same,Cmax,[12],37.4 ± 19 nM
same,half-life,[12],66.9 ± 9 h
same,Cmax at 1 day,"both sexes, human, plasma, oral, 60 mg, MAD 60 mg, day 1, read-out: Cmax Mean ± SD, D1",97.4 nM
same,Cmax at 14 day,"both sexes, human, plasma, oral, 60 mg, MAD 60 mg, day 14, read-out: Cmax Mean ± SD, D14",398 ± 146 nM
same,half-life at 14 day,"both sexes, human, plasma, oral, 60 mg, MAD 60 mg, day 14, read-out: t1/2 Mean ± SD, D14 (converted)",62.3 ± 10 h
